Measured values: ChEMBL document CHEMBL1201862, “PubChem BioAssay data set” (2004)
Structures can show the parent of a compound that is named as a salt. The source made the active and inactive calls.

How the values were obtained:
[1] = NIH-3T3 fibroblast cytotoxicity, dose response, cytotoxicity control, cell-based, fluorescence, Alamar Blue, secondary assay (AID 2327); type: functional;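 further: NIH-3T3 mouse fibroblasts cultured with fluconazole at 8 µg/mL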
[2] = luciferase reporter signal suppression in cells – H4 neuroglioma cells, luminescence, dose response (AID 1990); type: functional, cell-based
BJ [3] = test: BJ-TERT fibroblast viability loss – cell-based, RAS-independent, luminescence, dose response (AID 1933); type: functional; conditions: Homo sapiens
[4] = Luminescence Cell-Based Dose Response HTS to Identify Inhibitors of 5'UTR Stem-Loop Driven Prion Protein mRNA Translation in H4 Neuroglioblastoma Cells. [Related pubchem assays: 1827 (Project Summary), 1813 (Primary HTS)]; type: functional
Galanin receptor type 2 = Galanin receptor type 2 (Homo sapiens, UniProt O43603); test: Dose Response cell-based high-throughput screening assay to identify antagonists of galanin receptor 2 (GALR2). [Related pubchem assays: 828, 866 ]; type: functional
[5] = alpha-synuclein stem-loop luciferase translation blockers – H4 neuroglioma cells, luminescence, confirmation (AID 1988); type: functional, cell-based
BJ [6] = test: cells; type: functional, cell-based; conditions: Homo sapiens
Danio rerio = test: In Vivo Angiogenesis Dose-Response Confirmation. [Related pubchem assays: 732 (Assay preceding this confirmatory assay.)]; type: functional, organism-based
BJ [7] = test: BJ-TERT-LT-ST fibroblast viability loss – cell-based, RAS-independent, luminescence, dose response (AID 1935); type: functional; conditions: Homo sapiens;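 further: BJ fibroblasts immortalized with TERT plus LT and ST oncogenes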
[8] = DRD fibroblast viability loss – cell-based, non-viral oncogenic, luminescence, dose response (AID 1934); type: functional; conditions: Homo sapiens
Exodeoxyribonuclease V = target: T1, Exodeoxyribonuclease V (Escherichia coli (strain K12), UniProt P04993+P07648+P08394); test: RecBCD inhibition via phage-restricted bacterial growth – absorbance, V66 E. coli, mutant T4 phage, counter-screen for AddAB inhibitor project, dose response (AID 492957); type: functional, cell-based, Escherichia coli str. K-12 substr. MG1655
T1 sequence (P04993 whole entry): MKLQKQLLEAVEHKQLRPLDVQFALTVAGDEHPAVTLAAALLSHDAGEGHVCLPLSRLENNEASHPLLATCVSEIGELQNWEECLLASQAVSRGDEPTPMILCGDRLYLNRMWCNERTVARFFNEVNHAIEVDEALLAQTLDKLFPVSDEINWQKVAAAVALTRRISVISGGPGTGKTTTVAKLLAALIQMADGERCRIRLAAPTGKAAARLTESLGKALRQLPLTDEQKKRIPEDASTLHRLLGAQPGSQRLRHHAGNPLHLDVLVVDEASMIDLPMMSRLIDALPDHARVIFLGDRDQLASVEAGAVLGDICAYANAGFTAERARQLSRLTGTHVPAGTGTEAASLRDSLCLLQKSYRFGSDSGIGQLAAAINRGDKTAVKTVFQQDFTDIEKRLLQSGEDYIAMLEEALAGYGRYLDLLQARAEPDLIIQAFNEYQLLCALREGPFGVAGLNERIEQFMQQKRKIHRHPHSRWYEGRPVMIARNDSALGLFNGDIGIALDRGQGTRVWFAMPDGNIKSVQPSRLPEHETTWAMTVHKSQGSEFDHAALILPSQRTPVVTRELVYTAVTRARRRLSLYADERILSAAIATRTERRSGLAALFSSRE
T1 sequence (P07648 whole entry): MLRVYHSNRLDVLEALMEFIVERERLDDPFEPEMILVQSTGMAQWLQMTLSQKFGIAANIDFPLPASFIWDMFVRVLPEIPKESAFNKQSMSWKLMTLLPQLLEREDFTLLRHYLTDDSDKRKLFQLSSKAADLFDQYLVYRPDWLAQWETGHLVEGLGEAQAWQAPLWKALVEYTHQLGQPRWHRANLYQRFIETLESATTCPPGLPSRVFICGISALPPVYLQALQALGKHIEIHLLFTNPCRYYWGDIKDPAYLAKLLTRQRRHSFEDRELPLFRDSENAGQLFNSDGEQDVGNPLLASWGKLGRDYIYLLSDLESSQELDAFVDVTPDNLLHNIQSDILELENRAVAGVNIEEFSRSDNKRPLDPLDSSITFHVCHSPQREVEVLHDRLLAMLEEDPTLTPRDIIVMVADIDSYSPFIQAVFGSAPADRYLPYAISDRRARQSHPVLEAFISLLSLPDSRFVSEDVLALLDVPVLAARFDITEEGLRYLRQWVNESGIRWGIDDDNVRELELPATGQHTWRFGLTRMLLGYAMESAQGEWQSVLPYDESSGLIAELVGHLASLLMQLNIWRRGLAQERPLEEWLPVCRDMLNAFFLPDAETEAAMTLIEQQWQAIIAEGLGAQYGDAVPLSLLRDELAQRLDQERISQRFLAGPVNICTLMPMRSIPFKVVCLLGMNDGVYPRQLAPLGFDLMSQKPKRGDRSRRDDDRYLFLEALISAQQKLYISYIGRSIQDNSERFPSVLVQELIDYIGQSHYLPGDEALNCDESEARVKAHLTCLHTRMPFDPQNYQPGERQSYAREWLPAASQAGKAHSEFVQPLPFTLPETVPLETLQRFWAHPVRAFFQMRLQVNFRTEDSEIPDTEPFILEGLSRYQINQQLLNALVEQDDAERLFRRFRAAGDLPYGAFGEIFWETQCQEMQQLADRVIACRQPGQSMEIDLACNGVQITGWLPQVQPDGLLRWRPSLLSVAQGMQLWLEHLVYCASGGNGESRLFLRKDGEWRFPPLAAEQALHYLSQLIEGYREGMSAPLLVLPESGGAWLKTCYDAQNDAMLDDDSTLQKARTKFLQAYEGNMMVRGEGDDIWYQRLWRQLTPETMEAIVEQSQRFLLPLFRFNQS
T1 sequence (P08394 whole entry): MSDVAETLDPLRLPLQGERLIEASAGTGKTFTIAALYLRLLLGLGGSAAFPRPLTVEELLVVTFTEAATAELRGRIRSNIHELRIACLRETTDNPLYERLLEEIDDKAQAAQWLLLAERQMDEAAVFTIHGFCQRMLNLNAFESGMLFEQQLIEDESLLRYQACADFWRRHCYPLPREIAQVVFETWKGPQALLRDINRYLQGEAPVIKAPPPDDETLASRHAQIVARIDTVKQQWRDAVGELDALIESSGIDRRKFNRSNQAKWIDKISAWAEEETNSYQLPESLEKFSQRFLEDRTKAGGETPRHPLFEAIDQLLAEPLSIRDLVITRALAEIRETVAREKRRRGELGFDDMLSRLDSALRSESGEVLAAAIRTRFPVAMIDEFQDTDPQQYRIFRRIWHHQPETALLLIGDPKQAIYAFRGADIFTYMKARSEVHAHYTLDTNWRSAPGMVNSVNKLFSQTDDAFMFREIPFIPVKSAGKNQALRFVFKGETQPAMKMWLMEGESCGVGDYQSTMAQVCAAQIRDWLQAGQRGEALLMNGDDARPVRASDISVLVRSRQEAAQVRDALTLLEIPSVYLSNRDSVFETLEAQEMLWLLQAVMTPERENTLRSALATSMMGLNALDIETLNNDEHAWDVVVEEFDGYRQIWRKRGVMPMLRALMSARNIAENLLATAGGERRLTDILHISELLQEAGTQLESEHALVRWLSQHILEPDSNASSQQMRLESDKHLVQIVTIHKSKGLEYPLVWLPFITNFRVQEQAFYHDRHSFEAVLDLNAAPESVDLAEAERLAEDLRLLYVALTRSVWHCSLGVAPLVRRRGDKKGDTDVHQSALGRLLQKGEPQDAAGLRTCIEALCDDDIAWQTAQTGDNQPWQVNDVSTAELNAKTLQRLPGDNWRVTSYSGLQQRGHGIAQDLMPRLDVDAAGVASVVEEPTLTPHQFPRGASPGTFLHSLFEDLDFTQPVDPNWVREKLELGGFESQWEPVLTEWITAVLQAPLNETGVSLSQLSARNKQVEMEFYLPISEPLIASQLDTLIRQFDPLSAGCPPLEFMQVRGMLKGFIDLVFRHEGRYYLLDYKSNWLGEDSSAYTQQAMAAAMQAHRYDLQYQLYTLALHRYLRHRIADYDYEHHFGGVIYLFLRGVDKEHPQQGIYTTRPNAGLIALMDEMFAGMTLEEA

Nonstructural protein 1 = Nonstructural protein 1 (Influenza A virus, UniProt Q194T2); type: functional, Influenza A virus (A/California/07/2009(H1N1))
[9] = Counterscreen for AddAB inhibitors: absorbance-based bacterial cell-based high throughput dose response assay for inhibitors of bacterial viability. [Related pubchem assays (depositor defined):AID435030, AID449728, AID449731, AID488942, AID488955, AID488956]; type: functional
[10] = target: Heat shock protein HSP 90-alpha (Homo sapiens, UniProt P07900); type: functional, organism-based
BJ [11] = test: growth inhibition of engineered Ras-driven BJ cells – cell-based, alamar blue fluorescence, cherrypicked samples, dose response (AID 2631); type: functional; conditions: Homo sapiens;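 further: confirmatory dose-response assay in RAS-dependent BJ fibroblasts engineered with TERT, LT and ST, with cytotoxicity read by fluorescence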
[12] = system: Streptococcus sp. 'group A'; test: Streptococcus pyogenes SK(-)GAS viability under kanamycin – luminescence, BacTiterGlo, confirmation, counter-screen for streptokinase expression inhibitor project, dose response (AID 1900); type: functional, organism-based
Mucolipin-3 = Mucolipin-3 (Homo sapiens, UniProt Q8TDD5); test: Dose response cell-based high-throughput screening assay for agonists of the transient receptor potential channel ML3 (TRPML3). [Related pubchem assays: 1526, 1424, 1448 ]; type: functional
Ion channel NompC = Ion channel NompC (Danio rerio, UniProt Q7T1G6); test: Fluorescence counterscreen assay for TRPML3 agonists: dose response cell-based high-throughput screening assay to identify agonists of the transient receptor potential channel N1 (TRPN1). [Related pubchem assays: 1526, 1424, 1448 ]; type: functional
Streptococcus = test: GAS UMAA2166 growth inhibition – luminescence, BacTiterGlo, counter-screen for streptokinase expression inhibitor project, dose response (AID 1915); type: functional, organism-based;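 further: potency for reduction of bacterial viability or growth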
[13] = target: Photoreceptor-specific nuclear receptor (Homo sapiens, UniProt Q9Y5X4); type: functional, cell-based;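 further: CHO-S cells with Gal4-NCOR and VP16-NR2E3 two-hybrid luciferase reporter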
[14] = target: Neuropeptide Y receptor type 1 (Homo sapiens, UniProt P25929); type: functional;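 further: HEK293 cells with a CNG channel challenged with NPY then isoproterenol; potency as antagonist that reverses NPY suppression of cAMP signal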
[15] = target: Neuropeptide Y receptor type 2 (Homo sapiens, UniProt P49146); type: functional, cell-based;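 further: HEK293 cells expressing the receptor and a CNG channel; stimulus was NPY near EC95 followed by isoproterenol to raise cAMP; antagonist potency measured as restoring cAMP signal that NPY suppresses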
Chain of Neuropeptide Y receptor type 2 (P49146 whole entry): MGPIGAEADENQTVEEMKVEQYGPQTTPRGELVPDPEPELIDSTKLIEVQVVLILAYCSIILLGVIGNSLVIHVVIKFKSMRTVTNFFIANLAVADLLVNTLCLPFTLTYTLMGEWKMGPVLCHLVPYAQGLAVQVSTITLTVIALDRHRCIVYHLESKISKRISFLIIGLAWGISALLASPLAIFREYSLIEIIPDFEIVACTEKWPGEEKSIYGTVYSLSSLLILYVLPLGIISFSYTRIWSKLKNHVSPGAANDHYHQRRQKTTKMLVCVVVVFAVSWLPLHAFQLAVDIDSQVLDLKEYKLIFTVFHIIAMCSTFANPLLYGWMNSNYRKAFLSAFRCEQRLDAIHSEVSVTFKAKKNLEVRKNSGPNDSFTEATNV

Chain of Galanin receptor type 2 (O43603 whole entry): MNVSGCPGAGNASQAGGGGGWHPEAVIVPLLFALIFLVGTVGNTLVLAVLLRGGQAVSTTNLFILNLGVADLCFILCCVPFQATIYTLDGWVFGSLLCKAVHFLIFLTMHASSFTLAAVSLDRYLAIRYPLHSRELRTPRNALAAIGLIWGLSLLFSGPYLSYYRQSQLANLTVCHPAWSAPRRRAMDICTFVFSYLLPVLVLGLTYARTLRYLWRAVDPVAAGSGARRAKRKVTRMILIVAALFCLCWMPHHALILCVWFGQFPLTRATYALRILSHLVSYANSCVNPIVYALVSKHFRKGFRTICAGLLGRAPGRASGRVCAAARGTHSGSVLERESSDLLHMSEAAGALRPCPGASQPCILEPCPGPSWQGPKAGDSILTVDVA
Chain of Mucolipin-3 (Q8TDD5 whole entry): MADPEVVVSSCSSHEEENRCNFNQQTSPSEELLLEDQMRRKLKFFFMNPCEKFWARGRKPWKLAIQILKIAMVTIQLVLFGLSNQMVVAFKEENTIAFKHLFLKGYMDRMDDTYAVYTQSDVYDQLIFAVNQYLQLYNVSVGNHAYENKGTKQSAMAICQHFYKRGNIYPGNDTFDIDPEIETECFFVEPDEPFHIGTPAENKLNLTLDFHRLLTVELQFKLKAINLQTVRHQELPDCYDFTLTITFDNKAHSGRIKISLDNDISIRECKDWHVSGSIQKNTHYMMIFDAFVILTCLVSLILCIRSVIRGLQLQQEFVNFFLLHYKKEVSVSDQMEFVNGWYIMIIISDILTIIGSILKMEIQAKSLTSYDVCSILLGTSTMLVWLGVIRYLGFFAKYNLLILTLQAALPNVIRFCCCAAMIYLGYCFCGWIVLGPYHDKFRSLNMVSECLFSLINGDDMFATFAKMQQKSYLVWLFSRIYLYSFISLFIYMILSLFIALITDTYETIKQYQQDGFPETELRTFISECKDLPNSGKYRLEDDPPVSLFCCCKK
Chain of Ion channel NompC (Q7T1G6 whole entry): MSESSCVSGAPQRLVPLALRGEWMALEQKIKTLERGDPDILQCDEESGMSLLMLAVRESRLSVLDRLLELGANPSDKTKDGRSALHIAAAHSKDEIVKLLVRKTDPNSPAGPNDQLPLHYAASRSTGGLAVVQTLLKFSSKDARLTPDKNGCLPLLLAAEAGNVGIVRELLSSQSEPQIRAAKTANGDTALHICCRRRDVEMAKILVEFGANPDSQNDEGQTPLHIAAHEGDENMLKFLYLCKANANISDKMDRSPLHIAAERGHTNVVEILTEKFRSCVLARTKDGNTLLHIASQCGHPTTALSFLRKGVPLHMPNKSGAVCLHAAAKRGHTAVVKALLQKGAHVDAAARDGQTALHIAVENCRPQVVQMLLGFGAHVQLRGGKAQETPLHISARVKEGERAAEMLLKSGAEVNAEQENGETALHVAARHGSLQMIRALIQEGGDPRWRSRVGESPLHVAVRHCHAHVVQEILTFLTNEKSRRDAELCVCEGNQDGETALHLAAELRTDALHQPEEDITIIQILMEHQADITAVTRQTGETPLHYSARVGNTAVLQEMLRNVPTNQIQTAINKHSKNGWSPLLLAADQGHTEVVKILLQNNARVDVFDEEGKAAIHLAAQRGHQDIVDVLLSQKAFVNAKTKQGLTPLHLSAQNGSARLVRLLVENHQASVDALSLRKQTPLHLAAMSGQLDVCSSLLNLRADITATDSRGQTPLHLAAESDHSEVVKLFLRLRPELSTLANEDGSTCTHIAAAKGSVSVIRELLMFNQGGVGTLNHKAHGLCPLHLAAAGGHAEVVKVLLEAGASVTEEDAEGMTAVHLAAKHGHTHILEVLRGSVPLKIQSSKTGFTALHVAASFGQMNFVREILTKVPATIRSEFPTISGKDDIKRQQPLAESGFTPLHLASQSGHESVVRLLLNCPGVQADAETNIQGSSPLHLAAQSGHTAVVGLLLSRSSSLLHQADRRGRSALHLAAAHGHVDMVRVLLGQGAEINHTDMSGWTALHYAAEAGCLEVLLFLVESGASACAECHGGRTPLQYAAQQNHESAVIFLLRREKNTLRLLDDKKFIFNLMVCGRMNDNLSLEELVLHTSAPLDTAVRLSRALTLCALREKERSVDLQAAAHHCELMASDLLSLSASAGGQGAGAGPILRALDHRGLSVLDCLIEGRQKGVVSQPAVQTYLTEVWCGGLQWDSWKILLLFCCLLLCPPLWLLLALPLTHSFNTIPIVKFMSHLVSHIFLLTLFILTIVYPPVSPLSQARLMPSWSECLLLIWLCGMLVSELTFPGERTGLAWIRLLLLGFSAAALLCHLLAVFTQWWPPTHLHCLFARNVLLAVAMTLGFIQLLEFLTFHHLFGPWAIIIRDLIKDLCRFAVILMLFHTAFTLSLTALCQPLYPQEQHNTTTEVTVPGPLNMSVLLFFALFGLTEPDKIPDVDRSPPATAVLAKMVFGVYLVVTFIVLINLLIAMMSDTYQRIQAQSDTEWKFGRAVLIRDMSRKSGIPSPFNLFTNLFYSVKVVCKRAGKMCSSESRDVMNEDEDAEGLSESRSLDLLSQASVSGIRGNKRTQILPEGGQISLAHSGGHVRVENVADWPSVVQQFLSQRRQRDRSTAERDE
Chain of Photoreceptor-specific nuclear receptor (Q9Y5X4 whole entry, the tested form may be a part): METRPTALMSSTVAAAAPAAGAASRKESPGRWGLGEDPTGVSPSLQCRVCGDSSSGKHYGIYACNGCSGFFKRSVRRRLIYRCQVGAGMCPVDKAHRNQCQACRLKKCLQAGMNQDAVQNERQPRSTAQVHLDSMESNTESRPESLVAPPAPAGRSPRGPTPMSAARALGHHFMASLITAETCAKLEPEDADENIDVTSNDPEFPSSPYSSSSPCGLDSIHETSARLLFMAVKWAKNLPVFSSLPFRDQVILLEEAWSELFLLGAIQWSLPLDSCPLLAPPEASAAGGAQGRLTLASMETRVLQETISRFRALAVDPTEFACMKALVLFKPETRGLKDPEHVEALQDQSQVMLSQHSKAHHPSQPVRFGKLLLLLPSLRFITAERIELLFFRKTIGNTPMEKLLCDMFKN
Chain of Nonstructural protein 1 (Q194T2 whole entry): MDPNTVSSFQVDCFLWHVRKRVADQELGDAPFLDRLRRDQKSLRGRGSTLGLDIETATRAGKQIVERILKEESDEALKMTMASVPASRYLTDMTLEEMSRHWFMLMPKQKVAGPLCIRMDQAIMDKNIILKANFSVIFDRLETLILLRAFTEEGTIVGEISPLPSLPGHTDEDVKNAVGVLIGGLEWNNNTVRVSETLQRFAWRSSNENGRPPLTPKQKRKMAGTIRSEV
Chain of Neuropeptide Y receptor type 1 (P25929 whole entry): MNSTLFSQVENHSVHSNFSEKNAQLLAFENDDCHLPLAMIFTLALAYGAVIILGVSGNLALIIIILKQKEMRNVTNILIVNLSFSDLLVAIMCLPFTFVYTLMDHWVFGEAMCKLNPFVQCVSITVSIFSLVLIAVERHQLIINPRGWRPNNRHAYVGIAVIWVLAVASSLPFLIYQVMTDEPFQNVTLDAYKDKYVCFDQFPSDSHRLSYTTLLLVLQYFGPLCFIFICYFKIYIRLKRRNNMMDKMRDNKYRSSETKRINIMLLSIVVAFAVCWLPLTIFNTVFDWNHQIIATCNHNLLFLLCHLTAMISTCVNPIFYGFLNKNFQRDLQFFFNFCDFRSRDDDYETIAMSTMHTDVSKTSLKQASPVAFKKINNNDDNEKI

SMILES: c1cnc2c(c1)ccc1cccnc12 [PHENANTHROLINE]
- EC50 [1]: 9.41 µM (inconclusive)
- EC50 [2]: 6.95 µM (active)
- EC50 (BJ [3]): 5.03 µM (active)
- EC50 [4]: 5.66 µM (active)
- IC50 (Galanin receptor type 2): > 42 µM (not active)
- EC50 [5]: 7.02 µM (active)
- EC50 (BJ [6]): 8.88 µM (inconclusive)
- IC50 (Danio rerio): 7.51 µM (active)
- EC50 (BJ [7]): 7.62 µM (inconclusive)
- EC50 [8]: 16.4 µM (active)
- IC50 (Exodeoxyribonuclease V): 30.5 µM (inactive)
- IC50 (Nonstructural protein 1): 0.902 µM (active)
- IC50 [9]: 35.2 µM (inactive)
- AC50 [10]: 7.11 µM (active)
- EC50 (BJ [11]): 6.14 µM (active)

SMILES: N=C1SCC(=O)N1c1ncc(Cc2cccc(Cl)c2)s1
- EC50 [12]: 0.244 µM (active)
- EC50 (Mucolipin-3): 5.44 µM (active)
- EC50 (Ion channel NompC): > 29.9 µM (not active)
- EC50 (Streptococcus): 3.33 µM (active)
- IC50 [13]: 2.63 µM (active)

SMILES: CN(C)C(=O)C(CCN1CCC(O)(c2ccc(Cl)cc2)CC1)(c1ccccc1)c1ccccc1 [LOPERAMIDE HYDROCHLORIDE]
- IC50 [14]: > 35 µM (not active)
- IC50 [15]: > 35 µM (not active)
